In US8450527B2, “Amine derivative compounds for treating ophthalmic diseases and disorders” (Acucela Inc., priority 2007, dated 2013):

Biological target: T1, isomerase (Mus musculus, UniProt Q91ZQ5)
T1 construct: The recovery of 11-cis-retinal after bleaching can be used to estimate the activity of isomerase in vivo; from tissue; host or cells: eye (RPE) of living CD-1 albino male mice
T1 sequence (Q91ZQ5 1-533): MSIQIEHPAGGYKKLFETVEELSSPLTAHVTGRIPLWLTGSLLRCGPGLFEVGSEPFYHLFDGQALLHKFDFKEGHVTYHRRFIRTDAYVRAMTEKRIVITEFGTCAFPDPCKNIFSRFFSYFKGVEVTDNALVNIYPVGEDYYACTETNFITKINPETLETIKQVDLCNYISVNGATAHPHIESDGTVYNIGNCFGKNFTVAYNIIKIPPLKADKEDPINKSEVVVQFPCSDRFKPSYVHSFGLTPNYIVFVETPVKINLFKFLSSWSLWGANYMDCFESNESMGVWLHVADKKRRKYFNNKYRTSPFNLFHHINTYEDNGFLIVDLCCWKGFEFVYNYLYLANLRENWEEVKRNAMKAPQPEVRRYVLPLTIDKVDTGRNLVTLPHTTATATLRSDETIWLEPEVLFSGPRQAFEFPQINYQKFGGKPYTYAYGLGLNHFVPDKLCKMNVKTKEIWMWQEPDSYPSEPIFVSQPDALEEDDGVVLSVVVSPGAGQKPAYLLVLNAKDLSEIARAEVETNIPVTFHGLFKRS
Assay: In vivo murine isomerase assay (recovery of 11-cis-retinal after photobleaching)
Design: species or system CD-1 (albino) male mice
Details: for % Inhibition 1 mg/kg 4 h / % Inhibition 1 mg/kg 24 h / % Inhibition 5 mg/kg 4 h / % Inhibition 5 mg/kg 24 h: CD1 male mice; for % Inhibition 1 mg/kg 4 h / % Inhibition 1 mg/kg 24 h: single oral dose 1 mg/kg; for % Inhibition 1 mg/kg 4 h / % Inhibition 5 mg/kg 4 h: photobleaching 4 h post dosing; for % Inhibition 1 mg/kg 24 h / % Inhibition 5 mg/kg 24 h: photobleaching 24 h post dosing; for % Inhibition 5 mg/kg 4 h / % Inhibition 5 mg/kg 24 h: single oral dose 5 mg/kg; for ED50: mouse, po, read-out: ED50 (dose of compound that gives 50% inhibition of 11-cis retinal (oxime) recovery), CD-1 male mice, oral gavage, photobleached 4 hours after dosing
Method: The capability of amine derivative compounds to inhibit isomerase was determined by an in vivo murine isomerase assay. Brief exposure of the eye to intense light (“photobleaching” of the visual pigment or simply “bleaching”) is known to photo-isomerize almost all 11-cis-retinal in the retina. The recovery of 11-cis-retinal after bleaching can be used to estimate the activity of isomerase in vivo.
Delayed recovery, as represented by lower 11-cis-retinal oxime levels, indicates inhibition of isomerization reaction. Procedures were performed essentially as described by Golczak et al., Proc. Natl. Acad. Sci. USA 102:8162-67 (2005). See also Deigner et al., Science, 244: 968-71 (1989); Gollapalli et al., Biochim Biophys Acta. 1651: 93-101 (2003); Parish, et al., Proc. Natl. Acad. Sci. USA, 14609-13 (1998); Radu, et al., Proc Natl Acad Sci USA 101: 5928-33 (2004).
[…] Mice were orally gavaged with the several of the amine derivative compounds described herein. After 1-48 hours in the dark, the mice were exposed to photobleaching of 5,000 lux of white light for 10 minutes. The mice were allowed to recover 2 hours in the dark. The animals were then sacrificed by carbon dioxide inhalation. Retinoids were extracted from the eye and the regeneration of 11-cis-retinal was assessed at various time intervals.
All steps were performed in darkness with minimal redlight illumination (low light darkroom lights and redfiltered flashlights for spot illumination as needed) (see, e.g., Maeda et al., J. Neurochem 85:944-956, 2003; Van Hooser et al., J Biol Chem 277:19173-82, 2002). After the mice were sacrificed, the eyes were immediately removed and placed in liquid nitrogen for storage.
The eyes were placed in 500 μL of bis-tris propane buffer (10 mM, pH ˜7.3) and 20 μL of 0.8M hydroxylamine (pH˜7.3). The eyes were cut up into small pieces with small iris scissors and then thoroughly homogenized at 30000 rpm with a mechanical homogenizer (Polytron PT 1300 D) in the tube until no visible tissue remained. 500 μL of methanol and 500 μL of heptane were added to each tube. The tubes were attached to a vortexer so that the contents were mixed thoroughly for 15 minutes in room temperature. The organic phase was separated from the aqueous phase by centrifugation for 10 min at 13K rpm, 4° C. 240 μL of the solution from the top layer (organic phase) was removed and transferred to clean 300 μl glass inserts in HPLC vials using glass pipette and the vials were crimped shut tightly.
The samples were analyzed on an Agilent 1100 HPLC system with normal phase column: SILICA (Beckman Coutlier, dp 5 μm, […]). The running method has a flow rate of 1.5 ml/min; solvent components are 15% solvent 1 (1% isopropanol in ethyl acetate), and 85% solvent 2 (100% hexanes). Loading volume for each sample is 100 μl; detection wavelength is 360 nm. The area under the curve for 11-cis retinal oxime was calculated by Agilent Chemstation software and was recorded manually. Data processing was performed using Prizm software.
Positive control mice (no compound administered) were sacrificed fully dark-adapted and the eye retinoids analyzed. Light (bleached) control mice (no compound administered) were sacrificed and retinoids isolated and analyzed immediately after light treatment. The animals were orally gavaged with 1 mg/kg compound, then “photo-bleached” (5000 Lux white light for 10 minutes) at 4, 24 and 48 hours after dosing, and returned to darkness to allow recovery of the 11-cis-retinal content of the eyes. Mice were sacrificed 2 hours after bleaching, eyes were enucleated, and retinoid content was analyzed by HPLC.
A dose response in vivo isomerase inhibition study was performed with several of the amine derivative compounds described herein. Six-week old dark-adapted CD-1 (albino) male mice were orally gavaged with 0.03, 0.1, 0.3, 1 and 3 mg/kg of compound in sterile water as solution, and photobleached 4 hours after dosing. […]

CCCC(O)(CCC)CCc1cccc(CCCN)c1 [Example 3, 4-(3-(3-aminopropyl)phenethyl)heptan-4-ol]
% Inhibition 1 mg/kg 4 h: 36%
% Inhibition 1 mg/kg 24 h: 13%
% Inhibition 5 mg/kg 4 h: 95%
% Inhibition 5 mg/kg 24 h: 0%
ED50 (estimated): 2 mg/kg

NCCCc1cccc(CCC2(O)CCCCC2)c1 [Example 7, 1-(3-(3-aminopropyl)phenethyl)cyclohexanol]
% Inhibition 1 mg/kg 4 h: 23%
% Inhibition 1 mg/kg 24 h: 12%

CCCC(O)(CCC)CCc1cccc(OCCN)c1 [Example 9, 4-(3-(2-aminoethoxy)phenethyl)heptan-4-ol]
% Inhibition 1 mg/kg 4 h: 12%
% Inhibition 1 mg/kg 24 h: 6%

NCCOc1cccc(CCC2(O)CCCCCC2)c1 [Example 10, 1-(3-(2-aminoethoxy)phenethyl)cycloheptanol]
% Inhibition 1 mg/kg 4 h: 9%
% Inhibition 1 mg/kg 24 h: 1%

NCCOc1cccc(CCC2(O)CCSCC2)c1 [Example 11, 4-(3-(2-aminoethoxy)phenethyl)tetrahydro-2H-thiopyran-4-ol]
% Inhibition 1 mg/kg 4 h: 0%
% Inhibition 1 mg/kg 24 h: 0%

NCCOc1cccc(CCC2(O)CCCCC2)c1 [Example 12, 1-(3-(2-aminoethoxy)phenethyl)cyclohexanol]
% Inhibition 1 mg/kg 4 h: 27%
% Inhibition 1 mg/kg 24 h: 12%

NCCC(O)c1cccc(CCC2(O)CCCCC2)c1 (stereo not drawn) [Example 15, 1-(3-(3-amino-1-hydroxypropyl)phenethyl)cyclohexanol]
ED50 (estimated): 2 mg/kg

NCCC(O)c1cccc(CCC2(O)CCCCCC2)c1 (stereo not drawn) [Example 16, 1-(3-(3-amino-1-hydroxypropyl)phenethyl)cycloheptanol]
% Inhibition 1 mg/kg 4 h: 6%
% Inhibition 1 mg/kg 24 h: 0%

NCCC(O)c1cccc(CCC2CCCC2)c1 (stereo not drawn) [Example 17, 3-amino-1-(3-(2-cyclopentylethyl)phenyl)propan-1-ol]
% Inhibition 1 mg/kg 4 h: 84%
% Inhibition 1 mg/kg 24 h: 0%

CCCC(O)(CCC)CCc1cccc(C(O)CCN)c1 (stereo not drawn) [Example 19, 4-(3-(3-amino-1-hydroxypropyl)phenethyl)heptan-4-ol]
Inhibition of recovery of 11-cis retinal (oxime), dose dependence (0.03-3 mg/kg oral, 4 hours post dosing): dose related
ED50 (dose of compound that gives 50% inhibition of 11-cis retinal (oxime) recovery) (CD-1 male mice, oral gavage, photobleached 4 hours after dosing, estimated): 0.65 mg/kg
ED50 (estimated): 0.651 mg/kg

NCCCc1cccc(CCC2(O)CCCCCC2)c1 [Example 20, 1-(3-(3-aminopropyl)phenethyl)cycloheptanol]
% Inhibition 1 mg/kg 4 h: 0%
% Inhibition 1 mg/kg 24 h: 2%

CCCCCc1cccc(CCCN)c1 [Example 27, 3-(3-pentylphenyl)propan-1-amine]
% Inhibition 1 mg/kg 4 h: 6%
% Inhibition 1 mg/kg 24 h: 29%

CC(C)(C)CCc1cccc(CCCN)c1 [Example 29, 3-(3-(3,3-dimethylbutyl)phenyl)propan-1-amine]
% Inhibition 1 mg/kg 4 h: 0%
% Inhibition 1 mg/kg 24 h: 0%
% Inhibition 5 mg/kg 4 h: 62%
% Inhibition 5 mg/kg 24 h: 0%
ED50 (estimated): 4 mg/kg

NCCCc1cccc(CCCCc2ccccc2)c1 [Example 35, 3-(3-(4-phenylbutyl)phenyl)propan-1-amine]
% Inhibition 1 mg/kg 4 h: 0%
